# Source: US20130196986A1 (priority 2010, published 2013)
# Target: T1, P2X7 receptor (Homo sapiens, UniProt Q99572)
# T1 construct: stably expressing the full length P2X7 receptor; expressed in transfected cells
# T1 sequence (Q99572 1-595): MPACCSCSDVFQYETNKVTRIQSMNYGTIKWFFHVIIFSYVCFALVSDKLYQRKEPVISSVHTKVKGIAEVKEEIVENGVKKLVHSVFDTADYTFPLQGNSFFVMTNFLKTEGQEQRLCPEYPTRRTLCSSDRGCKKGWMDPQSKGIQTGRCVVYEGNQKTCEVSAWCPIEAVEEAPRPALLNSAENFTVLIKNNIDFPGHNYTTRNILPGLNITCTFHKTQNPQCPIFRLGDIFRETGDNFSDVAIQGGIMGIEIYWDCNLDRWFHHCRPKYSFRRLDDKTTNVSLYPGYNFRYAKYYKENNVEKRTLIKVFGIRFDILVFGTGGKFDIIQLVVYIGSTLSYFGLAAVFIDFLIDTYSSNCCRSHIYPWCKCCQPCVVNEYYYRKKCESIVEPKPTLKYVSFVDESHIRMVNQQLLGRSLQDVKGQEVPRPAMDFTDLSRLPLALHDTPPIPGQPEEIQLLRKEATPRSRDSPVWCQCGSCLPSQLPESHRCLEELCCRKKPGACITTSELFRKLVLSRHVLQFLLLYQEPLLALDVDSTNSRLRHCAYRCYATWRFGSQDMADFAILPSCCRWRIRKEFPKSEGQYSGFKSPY
# Assay: Ca++ flux assay (FLIPR) in P2X7-HEK-293 cell line stably expressing the full length P2X7 receptor, Bz-ATP activation
# Type: cell-based
# Conditions: P2X7-HEK-293 cells; agonist Bz-ATP; fluorescence as total area over 90 seconds; read-out: P2X7 Ca Flux hu IC50
# How it was run: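 HEK-293 cells stably expressing full-length P2X7 were loaded with Ca++-sensitive dye for 1 h, with compound added during loading. Cells were stimulated with Bz-ATP on FLIPR. Fluorescence was integrated as total area over 90 s, and IC50 was taken as 50% inhibition of the maximal Ca++ response.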
row,Structure (SMILES),IC50 [nM]
1,"Cc1c(-n2ccn3c(S(=O)(=O)Cc4ccccc4F)nnc3c2=O)cccc1C(F)(F)F [Compound 120, 3-(2-fluorobenzylsulfonyl)-7-(2-methyl-3-(trifluoromethyl)phenyl)-[1,2,4]triazolo[4,3-a]pyrazin-8(7H)-one]",11.8
2,"Cc1c(-n2ccn3c(S(=O)(=O)Cc4ccccc4Cl)nnc3c2=O)cccc1C(F)(F)F [Compound 121, 3-(2-chlorobenzylsulfonyl)-7-(2-methyl-3-(trifluoromethyl)phenyl)-[1,2,4]triazolo[4,3-a]pyrazin-8(7H)-one]",11.9
3,"Cc1c(-n2ccn3c(S(=O)(=O)Cc4cccs4)nnc3c2=O)cccc1C(F)(F)F [Compound 122, 7-(2-methyl-3-(trifluoromethyl)phenyl)-3-(thiophen-2-ylmethylsulfonyl)-[1,2,4]triazolo[4,3-a]pyrazin-8(7H)-one]",12.3
4,"Cc1c(-n2ccn3c(S(=O)(=O)Cc4ccsc4)nnc3c2=O)cccc1C(F)(F)F [Compound 123, 7-(2-methyl-3-(trifluoromethyl)phenyl)-3-(thiophen-3-ylmethylsulfonyl)-[1,2,4]triazolo[4,3-a]pyrazin-8(7H)-one]",12.4
5,"Cc1c(-n2ccn3c(S(=O)(=O)Cc4cccc(F)c4Cl)nnc3c2=O)cccc1C(F)(F)F [Compound 124, 3-(2-chloro-3-fluorobenzylsulfonyl)-7-(2-methyl-3-(trifluoromethyl)phenyl)-[1,2,4]triazolo[4,3-a]pyrazin-8(7H)-one]",14.6
6,"Cc1c(-n2ccn3c(S(=O)(=O)Cc4ccsc4Br)nnc3c2=O)cccc1C(F)(F)F [Compound 125, 3-((2-bromothiophen-3-yl)methylsulfonyl)-7-(2-methyl-3-(trifluoromethyl)phenyl)-[1,2,4]triazolo[4,3-a]pyrazin-8(7H)-one]",15.5
7,Cc1c(-n2ccn3c(S(=O)(=O)Cc4ccccc4-c4ccccc4)nnc3c2=O)cccc1C(F)(F)F [Compound 126],15.9
8,"O=c1c2nnc(S(=O)(=O)Cc3ccccc3)n2ccn1-c1cccc(C(F)(F)F)c1Cl [Compound 127, 3-(benzylsulfonyl)-7-(2-chloro-3-(trifluoromethyl)phenyl)-[1,2,4]triazolo[4,3-a]pyrazin-8(7H)-one]",16.3
9,"Cc1c(Cl)cccc1-n1ccn2c(S(=O)(=O)Cc3ccccc3Br)nnc2c1=O [Compound 128, 3-(2-bromobenzylsulfonyl)-7-(3-chloro-2-methylphenyl)-[1,2,4]triazolo[4,3-a]pyrazin-8(7H)-one]",16.9

# Continued, values first:
row,IC50 [nM],Structure (SMILES)
1,17,"Cc1c(-n2ccn3c(S(=O)(=O)Cc4ccccc4C(C)(C)C)nnc3c2=O)cccc1C(F)(F)F [Compound 129, 3-(2-tert-butylbenzylsulfonyl)-7-(2-methyl-3-(trifluoromethyl)phenyl)-[1,2,4]triazolo[4,3-a]pyrazin-8(7H)-one]"
2,17.3,"Cc1c(Cl)cccc1-n1ccn2c(S(=O)(=O)Cc3cccc(F)c3Cl)nnc2c1=O [Compound 130, 7-(3-chloro-2-methylphenyl)-3-(2-chloro-3-fluorobenzylsulfonyl)-[1,2,4]triazolo[4,3-a]pyrazin-8(7H)-one]"
3,17.7,"Cc1c(-n2ccn3c(S(=O)(=O)Cc4ccccc4Br)nnc3c2=O)cccc1C(F)(F)F [Compound 131, 3-(2-bromobenzylsulfonyl)-7-(2-methyl-3-(trifluoromethyl)phenyl)-[1,2,4]triazolo[4,3-a]pyrazin-8(7H)-one]"
4,17.9,"Cc1c(-n2ccn3c(S(=O)(=O)Cc4ccc(Cl)s4)nnc3c2=O)cccc1C(F)(F)F [Compound 132, 3-((5-chlorothiophen-2-yl)methylsulfonyl)-7-(2-methyl-3-(trifluoromethyl)phenyl)-[1,2,4]triazolo[4,3-a]pyrazin-8(7H)-one]"
5,21.4,"Cc1c(-n2ccn3c(S(=O)(=O)Cc4ccccc4I)nnc3c2=O)cccc1C(F)(F)F [Compound 133, 3-(2-iodobenzylsulfonyl)-7-(2-methyl-3-(trifluoromethyl)phenyl)-[1,2,4]triazolo[4,3-a]pyrazin-8(7H)-one]"
